Assays:
[1] = test system: carp and water flea; experiment: Fish toxicity ranking according to Japanese regulations; set-up: species or system Cyprinus carpio L; Daphnia pulex; details: from TLm for carp and water flea
Procedure, shortened: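 Ranking per Japanese agrochemical regulations from median tolerance limits: A = carp TLm (48 hrs.) >10 ppm and water flea TLm (3 hrs.) >0.5 ppm; B = carp 10-0.5 ppm, or carp >10 ppm with water flea <0.5 ppm; C = carp TLm (48 hrs.) <0.5 ppm.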

[2] = test system: green rice leafhoppers (Nephotettix cincticeps Uhler); experiment: Mortality test with green rice leafhoppers by topical application method; details: Nephotettix cincticeps, in Oryza sativa, 24 h; for LD50: read-out: LD50 (median lethal dose), topical, green rice leafhoppers; for mortality at 10 ng: read-out: Pesticidal effect, green rice leafhopper
Description: Mortality test with green rice leafhoppers (Nephotettix cincticeps Uhler) by topical application method
Then, the insects were kept at 25° C. with access to rice plant seedlings. The insects were used in groups of 15 individuals each.

[3] = test system: two-spotted spider mites (Tetranychus urticae Koch); experiment: Mortality test with two-spotted spider mites by spray application method; assay type: in vivo; details: 48 h, 200 ppm spray, two days, read-out: Percent decrease of population (%)
Description: Mortality test with two-spotted spider mites (Tetranychus urticae Koch) by spray application method
To a 5% aqueous solution of acetone was added dropwise a small amount of Tween-20 (polyethylene sorbitan monolaurate) as a surfactant. […] From 30 to 50 adult two-spotted spider mites (Tetranychus urticae Koch) were released on the leaves of kidney-bean plants in the dicotyledonous stage in a pot 9 cm in diameter, followed by a spray application of the above solution. The pot was kept in a constant-temperature chamber at 26° C. and two days later the mites were examined for deaths. The percent decrease of population was then calculated.

[4] = test system: green rice leafhoppers (Nephotettix cincticeps Uhler); experiment: Utility Example-4: 0.2% dust on rice seedlings, green rice leafhoppers; assay type: in vivo; details: 5 kg per 10 ares, 24 hours, resistant to organophosphorus and carbamate pesticides
Description: (§1) A 0.2% dust preparation of each of the cis- and trans-isomers and a 50:50 mixture of the cis- and trans-isomers of Compound (1) and of Compound (2) as prepared by the procedure described in Formulation Example-3 was applied to rice seedlings by means of a bell-jar duster at the rate of 5 kg per 10 ares. […] In all cases, the mortality was not less than 90%.

[5] = test system: rice stem borers (Chilo suppressalis Walker); experiment: Mortality test with rice stem borers by topical application method; assay type: in vivo; details: 24 h; for mortality at 0.001 mg: read-out: Pesticidal effect, rice stem borer
Description: Mortality test with rice stem borers (Chilo suppressalis Walker) by topical application method
Using a microsyringe, 0.5 μl of the above solution was applied to the thoracic abdominal region of each final-instar larva of rice stem borer (Chilo suppressalis Walker). […] The test larvae were used in groups of 20 individuals each.

[6] = test system: brown planthoppers (Nilaparvata lugens); experiment: Utility Example-7: 0.5% dust on rice seedlings, brown planthoppers; assay type: in vivo; details: 1 kg per 10 ares, 24 hours
Description: as §1, with “A 0.5%” for “A 0.2%”, “Formulation Example-4” for “Formulation Example-3”, “rice seedlings, on which 30 adult brown planthoppers (Nilaparvata lugens) were released,” for “rice seedlings”, “of 1” for “of 5”

[7] = Fish toxicity safety factor (TLm divided by maximum concentration in cover water); set-up: species or system carp; details: in vivo, TLm / maximum concentration in cover water at LC50 application (100 l per 10 ares, 5 cm depth)
Procedure, shortened: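 Calculated index: carp TLm (ppm) divided by the maximum compound concentration expected in paddy cover water. That concentration assumes 100 l of solution at the pest LC50 applied per 10 ares onto 5 cm deep cover water, all of it entering the water.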

[8] = Toxicity test with water-fleas; assay type: in vivo, Daphnia pulex; details: water, 25±1° C., read-out: TLm, Water-flea (6 hrs.)
Description: Toxicity test with water-fleas (Daphnia pulex)
An acetone solution of one of the test compounds as mentioned in Table 10 and Tween-20 (the same surfactant as mentioned hereinbefore) was prepared. To 100 ml of water in a high-walled dish (9 cm in diameter, 7 cm deep) was added the above acetone solution. The mixture was stirred thoroughly to prepare an aqueous solution containing the test compound in a predetermined concentration. This was used as a test water. Twenty water-fleas (Daphnia pulex) were released into each test water which was maintained at 25±1° C. After 6 hours, the water-fleas were examined for deaths. The TLm (median tolerance limit, ppm) was determined.

[9] = test system: houseflies (Musca domestica); experiment: Mortality test with houseflies by topical application method; details: 24 h; for mortality at 0.001 mg: read-out: Pesticidal effect, housefly
Description: Mortality test with houseflies (Musca domestica) by topical application method
Each of the compounds according to this invention and the control compounds (Table 2) was accurately weighted and a 0.1% solution of each sample in acetone was prepared. Female adult houseflies (Musca domestica) resistant to organophosphorus pesticides, were anesthetized with ether and 0.5 μl or 1.0 μl of the above solution was micropipetted onto the prothoracic dorsal region of each insect. The insects were then put in a high-walled dish together with feed and the dish was covered with a wire-mesh cover and kept at a temperature of 25° C. The test insects were used in groups of 30 individuals each. After 24 hours the insects were examined for deaths and the percent mortality was calculated.

Row | SMILES | Ranking [1] | mortality at 0.01 µg/female [2] [%] | mortality at 0.1 µg/female [2] [%] | mortality at 1 µg/female [2] [%] | LD50 [2] [mg/kg] | mortality at 200 ppm [3] [%] | mortality [4] | mortality at 1 µg/larva [5] [%] | mortality at 10 µg/larva [5] [%] | mortality [6] | selectivity ratio [7] | LC50 at 6 h [8] [µg/mL] | mortality at 0.5 µg/female [9] [%] | mortality at 1 µg/female [9] [%] | mortality at 10 ng [2] [%] | mortality at 0.001 mg [5] [%] | mortality at 0.001 mg [9] [%]
1 | C#CC(OC(=O)[C@@H]1[C@H](C=C(Cl)Cl)C1(C)C)c1cccc(Oc2ccc(Cl)cc2)c1 (relative stereo) [Compound (2) cis-] | B (TLm (48 hrs.) value 10-0.5 ppm for carp; or TLm (48 hrs.) value >10 ppm for carp and TLm (3 hrs.) value <0.5 ppm for water flea, wherein appreciable toxicity to fishes is not observed by usual application but may be observed when applied to wide area at one time.) | 100 | 100 | 100 | 0.44 | 100 | not less than 90% | 100 | 100 | not less than 90% | 2.1 | > 40 | 100 | 100 |  |  | 
2 | CC1(C)C(C=C(Cl)Cl)C1C(=O)OCc1cccc(Oc2ccccc2)c1 (stereo not drawn) [Compound (B), Permethrin] | C (TLm (48 hrs.) value <0.5 ppm for carp, wherein toxicity to fishes is so strongly observed by usual application that both the application method and application area are strictly restricted.) | 80 | 100 | 100 | 1.25 | 100 |  | 95 | 100 |  | 0.01 |  | 100 | 100 | 80 | 95 | 100
3 | C#CC(OC(=O)[C@@H]1[C@@H](C=C(Cl)Cl)C1(C)C)c1cccc(Oc2ccc(Cl)cc2)c1 (relative stereo) [Compound (2) trans-] | A (TLm (48 hrs.) value >10 ppm for carp and TLm (3 hrs.) value >0.5 ppm for water flea, wherein toxicity to fishes is not observed by usual application.) | 100 | 100 | 100 | 0.45 | 100 | not less than 90% | 100 | 100 | not less than 90% | > 28 | > 40 | 100 | 100 |  |  | 
4 | CC1(C)[C@@H](C=C(Cl)Cl)[C@@H]1C(=O)OCc1cccc(Oc2ccc(Cl)cc2)c1 (relative stereo) [Compound (1) trans-, 3-(4-chlorophenoxy)benzyl trans-2,2-dimethyl-3-(2,2-dichlorovinyl)cyclopropanecarboxylate] | B (TLm (48 hrs.) value 10-0.5 ppm for carp; or TLm (48 hrs.) value >10 ppm for carp and TLm (3 hrs.) value <0.5 ppm for water flea, wherein appreciable toxicity to fishes is not observed by usual application but may be observed when applied to wide area at one time.) | 100 | 100 | 100 | 0.68 | 100 | not less than 90% | 85 | 100 | not less than 90% | 3.5 | > 40 | 100 | 100 |  |  | 
5 | C#CC(OC(=O)C1C(C=C(Cl)Cl)C1(C)C)c1cccc(Oc2ccc(Cl)cc2)c1 (stereo not drawn) [Compound (2) cis-/trans- = 50:50, 3-(4-chlorophenoxy)-α-ethynylbenzyl 2,2-dimethyl-3-(2,2-dichlorovinyl)cyclopropanecarboxylate] | B (TLm (48 hrs.) value 10-0.5 ppm for carp; or TLm (48 hrs.) value >10 ppm for carp and TLm (3 hrs.) value <0.5 ppm for water flea, wherein appreciable toxicity to fishes is not observed by usual application but may be observed when applied to wide area at one time.) | 100 | 100 | 100 | 0.44 | 100 | not less than 90% | 100 | 100 | not less than 90% |  | > 40 | 100 | 100 | 100 | 100 | 100

From US4389412A, “Substituted cyclopropanecarboxylic acid esters and pesticidal compositions containing the same as active ingredient” (priority 1979, dated 1983)
